Test [1] relates to CCRF-CEM. Kind of test: Protection against 40 nM methotrexate-induced growth inhibition in human CCRF-CEM cells assessed as growth at 5 uM relative to control. It counts as functional. The arrangement: scale not given: the % may be the effect or the level left.
Test [2] relates to CCRF-CEM. The experiment in a line: Protection against 4000 nM N-{4-[(2,4-diamino-5-methyl-4, 7-dihydro-3H-pyrrolo[2,3-d]pyr imidin-6-yl)thio]benzoyl}-L-gl utamic acid-induced growth inhibition in human CCRF-CEM cells assessed as growth at 5 uM relative to control. The test is classed as functional. The arrangement: scale not given: the % may be the effect or the level left.
In test [3] the target is T1, Bifunctional dihydrofolate reductase-thymidylate synthase (Toxoplasma gondii, UniProt Q07422).
T1 sequence (Q07422 whole entry): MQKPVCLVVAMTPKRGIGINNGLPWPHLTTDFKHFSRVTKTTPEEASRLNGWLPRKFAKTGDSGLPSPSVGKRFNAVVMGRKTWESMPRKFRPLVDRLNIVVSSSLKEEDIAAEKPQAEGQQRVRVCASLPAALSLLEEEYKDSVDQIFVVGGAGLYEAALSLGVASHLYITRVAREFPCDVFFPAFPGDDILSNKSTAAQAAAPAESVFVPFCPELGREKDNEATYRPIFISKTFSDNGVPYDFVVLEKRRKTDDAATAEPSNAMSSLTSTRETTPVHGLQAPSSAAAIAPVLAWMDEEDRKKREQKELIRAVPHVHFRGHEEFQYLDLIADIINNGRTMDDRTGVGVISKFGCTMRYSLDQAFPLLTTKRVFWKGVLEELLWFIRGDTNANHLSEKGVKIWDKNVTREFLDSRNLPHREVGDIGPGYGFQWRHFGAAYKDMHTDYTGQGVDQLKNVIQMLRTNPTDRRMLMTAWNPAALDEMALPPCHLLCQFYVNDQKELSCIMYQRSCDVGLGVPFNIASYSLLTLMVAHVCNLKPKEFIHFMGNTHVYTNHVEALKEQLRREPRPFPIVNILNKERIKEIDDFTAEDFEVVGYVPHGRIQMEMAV
Kind of test: Inhibition of Toxoplasma gondii thymidylate synthase.

Test [4] addresses T2, Dihydrofolate reductase (Escherichia coli, UniProt P0ABQ4).
T2 sequence (P0ABQ4 whole entry): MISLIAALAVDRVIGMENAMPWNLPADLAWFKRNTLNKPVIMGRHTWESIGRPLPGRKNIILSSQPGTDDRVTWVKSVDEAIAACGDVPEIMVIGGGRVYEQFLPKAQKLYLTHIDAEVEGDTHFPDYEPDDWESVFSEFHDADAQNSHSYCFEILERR
Description: Inhibition of Escherichia coli DHFR

The test system of test [5] is CCRF-CEM. The experiment in a line: cells. As to conditions: Homo sapiens.
Description: Growth inhibition of human CCRF-CEM cells
The target in test [6] is Dihydrofolate reductase (Homo sapiens, UniProt P00374).
Sequence of Dihydrofolate reductase (Homo sapiens, UniProt P00374) (P00374 whole entry): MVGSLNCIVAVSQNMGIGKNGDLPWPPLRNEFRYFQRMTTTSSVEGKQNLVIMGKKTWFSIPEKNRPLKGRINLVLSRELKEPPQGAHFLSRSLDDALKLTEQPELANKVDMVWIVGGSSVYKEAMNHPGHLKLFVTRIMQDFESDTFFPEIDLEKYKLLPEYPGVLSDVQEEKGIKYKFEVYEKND
Test [7] addresses Thymidylate synthase (Escherichia coli, UniProt C3SWJ7). The experiment in a line: Inhibition of Escherichia coli thymidylate synthase.
In test [8] the test system is CCRF-CEM. The experiment in a line: cells. The conditions noted are these: Homo sapiens, 120 h.
Test [9] deals with CCRF-CEM. Kind of test: cells. The conditions noted are these: Homo sapiens, 120 h. This is another data set of the same source.
Test [10] deals with Thymidylate synthase (Homo sapiens, UniProt P04818).
Sequence of Thymidylate synthase (Homo sapiens, UniProt P04818) (P04818 whole entry): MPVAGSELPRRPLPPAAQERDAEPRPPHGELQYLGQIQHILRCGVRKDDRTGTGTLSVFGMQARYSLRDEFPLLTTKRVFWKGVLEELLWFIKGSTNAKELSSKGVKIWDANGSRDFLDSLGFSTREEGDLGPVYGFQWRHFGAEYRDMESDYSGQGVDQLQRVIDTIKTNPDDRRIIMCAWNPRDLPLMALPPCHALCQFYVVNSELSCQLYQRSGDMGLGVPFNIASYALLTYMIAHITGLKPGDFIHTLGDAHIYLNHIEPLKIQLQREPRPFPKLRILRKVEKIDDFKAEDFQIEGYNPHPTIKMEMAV
Description: Inhibition of human thymidylate synthase
The target in test [11] is T1, Bifunctional dihydrofolate reductase-thymidylate synthase. Kind of test: Inhibition of Toxoplasma gondii DHFR.
The subject of test [12] is CCRF-CEM. Kind of test: cells. As to conditions: Homo sapiens, 120 h. This is another data set of the same source.
The test system of test [13] is CCRF-CEM. The experiment in a line: Protection of drug-induced growth inhibition by 1 uM leucovorin in human CCRF-CEM cells assessed as growth at 20 nM relative to control. The test is classed as functional. Also noted: scale not given: the % may be the effect or the level left.
The subject of test [14] is CCRF-CEM. The experiment in a line: Protection of drug-induced growth inhibition by 0.1 uM leucovorin in human CCRF-CEM cells assessed as growth at 20 nM relative to control. It counts as functional. The arrangement: scale not given: the % may be the effect or the level left.
Test [15] concerns CCRF-CEM. Kind of test: Cell growth in human CCRF-CEM cells at 20 nM relative to control. It counts as functional.
Test [16] deals with CCRF-CEM. The experiment in a line: Cell growth in human CCRF-CEM cells at 40 nM relative to control. It counts as functional.
Test [17] deals with CCRF-CEM. The experiment in a line: Protection of drug-induced growth inhibition by 10 uM leucovorin in human CCRF-CEM cells assessed as growth at 20 nM relative to control. It counts as functional. The arrangement: scale not given: the % may be the effect or the level left.

Sequence of Thymidylate synthase (Escherichia coli, UniProt C3SWJ7) (C3SWJ7 whole entry): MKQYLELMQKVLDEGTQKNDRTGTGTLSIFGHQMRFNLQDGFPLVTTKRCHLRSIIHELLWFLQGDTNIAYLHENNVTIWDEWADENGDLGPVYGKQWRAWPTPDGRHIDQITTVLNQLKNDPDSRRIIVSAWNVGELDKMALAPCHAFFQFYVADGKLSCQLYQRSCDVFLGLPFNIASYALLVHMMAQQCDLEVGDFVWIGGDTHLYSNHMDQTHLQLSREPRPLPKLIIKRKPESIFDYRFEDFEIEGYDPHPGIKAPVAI

`Cc1cn([C@H]2C[C@H](O)[C@@H](CO)O2)c(=O)[nH]c1=O` [DOXRIBTIMINE]: the Activity is 18% in test [1] and 20% in test [2].
In the case of `Cc1c(Sc2ccc(C(=O)N[C@@H](CCC(=O)O)C(=O)O)cc2)[nH]c2nc(N)[nH]c(=O)c12`, the 50% inhibitory concentration (IC50) in [3] was 3.6 µM; in [4], above 240 µM; in test [6], above 240 µM; in [7], above 180 µM; in test [10], 100 µM; in test [11] it was 2.2 µM. Further, the concentration giving a half-maximal response (EC50) in test [5], in test [8], in [9] and in [12] was above 20 µM in each case.
The compound `Cc1nc2ccc(CN(C)c3ccc(C(=O)N[C@@H](CCC(=O)O)C(=O)O)s3)cc2c(=O)[nH]1` [RALTITREXED] returned an IC50 in [4] of 23 µM.
As for `CN(Cc1cnc2nc(N)nc(N)c2n1)c1ccc(C(=O)N[C@@H](CCC(=O)O)C(=O)O)cc1` [METHOTREXATE], the Activity in test [13] turned out to be 96%; in test [14] it was 90%; in test [15], 5%; in test [16], 12%; in test [17], 95%.

The IC50 is the concentration that gives 50% inhibition. By EC50 is commonly meant the concentration giving half of the maximal effect.

The record behind these values is ChEMBL document CHEMBL1139472, “Synthesis of N-{4-[(2,4-diamino-5-methyl-4,7-dihydro-3H-pyrrolo[2,3-d]pyrimidin-6-yl)thio]benzoyl}-L-glutamic acid and N-{4-[(2-amino-4-oxo-5-methyl-4,7-dihydro-3H-pyrrolo[2,3-d]pyrimidin-6-yl)thio]benzoyl}-L-glutamic acid as dual inhibitors of dihydrofolate reductase and thymidylate synthase and …” (J Med Chem, 2005).
